Measurements: patent US11766496B2, “Antimicrobial fabric freshening compositions containing octenidine dihydrochloride” (The Procter & Gamble Company, priority 2019, dated 2023)
In brackets after ≈: the same amount, converted by molar mass.

What was measured:
Assay type in all cases: cell-based
[1] = tested on: Escherichia coli (E. coli—ATCC #8739); assay: Minimum Biocidal Concentration (MBC) in suspension
Experimental: (§1) The antimicrobial efficacy of the antimicrobial agent in the composition is determined by measuring its Minimum Biocidal Concentration (MBC). The MBC is defined as the lowest absolute concentration of the particular antimicrobial active which provides complete kill (zero bacterial growth). The MBC of the compositions herein was determined against the bacterium, Staphylococcus aureus (S. aureus—ATCC #6538), a gram positive bacterium, and against Escherichia coli (E. coli—ATCC #8739), a gram negative bacterium. These microorganisms are representative of natural contaminants in many consumer and industrial applications. The bacteria inoculum was prepared by transferring several colonies from a Tryptone Soy Agar (TSA) plate to a saline solution (0.85% NaCl), the bacteria concentration in this saline solution was determined by measuring the % Transmittance at 425 nm and adjusted by either adding more bacteria or more saline solution until the % Transmittance at 425 nm was between 23-25% for S. aureus, and between 30-32% for E. coli, this % transmittance corresponds to a bacteria concentration of 10^8 CFU/ml. […] Each subsequent well (rows B to G) were dosed with 100 μL of the same fabric refresher composition, without the addition of the antimicrobial agent. 100 μL of the fabric refresher composition comprising the antimicrobial active was transferred from row A to row B and mixed. 100 μL of the composition was then transferred from row B to row C and mixed, and the process repeated to row G. As such, the concentration of the antimicrobial agent underwent two-fold dilution in adjacent wells, while the concentration of the other actives in the fabric refresher composition remained constant across all the wells in the same column. 10 μL of the 10^8 CFU/ml bacteria suspension in saline was added to wells A to F of the microtiter plate with row G kept as a nil bacteria control. The final volume in each well was 110 μL, except for row G which comprised 100 μL of the fabric refresher composition and no bacteria suspension. […] The plate was incubated at 32.5° C. for 48 h. MBC concentration is taken as the lowest concentration of the antimicrobial active at which no visible colony growth is observed on the TSA plate. The antibacterial efficacy of the bispyridinium alkane octenidine hydrochloride was compared to that of quaternary ammonium and alkylamine antimicrobial compounds in two fabric freshening compositions.

[2] = tested on: Staphylococcus aureus (S. aureus—ATCC #6538); assay: Minimum Biocidal Concentration (MBC) in suspension
Experimental: as §1

[3] = tested on: Staphylococcus aureus (S. aureus—ATCC #6538); assay: Antibacterial efficacy on fabrics (cotton carriers); conditions: cotton fabric carriers; 0.05% antimicrobial active; 10 mins contact time; 5% horse serum soil load
Experimental: The bactericidal efficacy on fabric surfaces of fabric refresher compositions comprising different antimicrobial agents was determined against the bacterium, Staphylococcus aureus (S. aureus—ATCC #6538). The bacteria inoculum was prepared by transferring several colonies from a Tryptone Soy Agar (TSA) plate to a saline solution (0.85% NaCl) comprising 5% horse serum as additional soil load, the bacteria concentration in this saline solution was determined by measuring the % Transmittance at 425 nm and adjusted by either adding more bacteria or more saline solution until the % Transmittance at 425 nm is between 23-25% which corresponds to a bacteria concentration of 10^8 CFU/ml.
Fabric carriers, 1 cm×1 cm disks of cotton sterilized by autoclaving, were inoculated with 50 μL of the 10^8 CFU/ml bacteria inoculum and incubated for 30 mins at 32° C. After this incubation period, fabric carriers were treated with 2.5 ml of different fabric refresher compositions comprising no antimicrobial active (reference), or 0.05% of either bispyridinium alkane (octenidine dihydrochloride) or N-(3-aminopropyl)-N-dodecylpropane-1,3-diamine (Lonzabac 12.30) as antimicrobial actives. […] 100 μL of each of the serial dilutions were plated on a TSA plate, plates were incubated at 32° C. for 48 hours, after this incubation time, the number of colonies in each plate was counted. […]

[4] = in fabric freshening Composition 1, 20 minutes contact time
[5] = in fabric freshening Composition 2, 20 minutes contact time

Compound | MBC (ppm) against E. coli [1, 4] [ppm] | MBC (ppm) against S. aureus [2, 4] [ppm] | MBC (ppm) against E. coli [1, 5] [ppm] | MBC (ppm) against S. aureus [2, 5] [ppm] | Number of bacteria extracted from treated fabrics [3] | MBC ([1]; Escherichia coli, ATCC8739, 20 min, in fabric freshening Composition 1, 20 minutes contact time, read-out: MBC (ppm) against E. coli) [mg/L] | MBC ([2]; Staphylococcus aureus, ATCC6538, 20 min, in fabric freshening Composition 1, 20 minutes contact time, read-out: MBC (ppm) against S. aureus) [mg/L]
N-alkyl dimethyl benzyl ammonium chloride [N-alkyl dimethyl benzyl ammonium chloride (10)] | 1500 | 562.5 | – | – | – | – | –
N-alkyl dimethyl benzyl ammonium chloride [N-alkyl dimethyl benzyl ammonium chloride (9)] | 3000 | 375 | – | – | – | – | –
CCCCCCCCN=c1ccn(CCCCCCCCCCn2ccc(=NCCCCCCCC)cc2)cc1.Cl.Cl [Bispyridinium alkane (6), octenidine dihydrochloride] | 500 | 125 | 250 | 47 | no viable bacteria were recovered | – | –
CCCCCCCCCCCCN(CCCN)CCCN [N-(3-aminopropyl)-N-dodecylpropane-1,3-diamine] | – | – | 3000 | 3000 | about 10^4 CFU/ml | 3000 (≈ 10 mM) | 3000 (≈ 10 mM)
